For 12 molecules, IC50 results are on record in patent US6984649B1, “Pyridine derivatives” (Bayer Aktiengesellschaft, priority 2000, dated 2006).

Counter-ions that a name gives are not always drawn. Where only a bound is given, the exact number is not on record here.

For this assay, the target named is T1, human IKK-β (Homo sapiens, UniProt O14920).
T1 construct: A cDNA fragment encoding human IKK-β open reading frame was generated by PCR; His tag (from pcDNA3.1/His C); made in house; host or cells: Sf21 insect cells (baculovirus); substrate made in E. coli
T1 sequence (O14920 1-756): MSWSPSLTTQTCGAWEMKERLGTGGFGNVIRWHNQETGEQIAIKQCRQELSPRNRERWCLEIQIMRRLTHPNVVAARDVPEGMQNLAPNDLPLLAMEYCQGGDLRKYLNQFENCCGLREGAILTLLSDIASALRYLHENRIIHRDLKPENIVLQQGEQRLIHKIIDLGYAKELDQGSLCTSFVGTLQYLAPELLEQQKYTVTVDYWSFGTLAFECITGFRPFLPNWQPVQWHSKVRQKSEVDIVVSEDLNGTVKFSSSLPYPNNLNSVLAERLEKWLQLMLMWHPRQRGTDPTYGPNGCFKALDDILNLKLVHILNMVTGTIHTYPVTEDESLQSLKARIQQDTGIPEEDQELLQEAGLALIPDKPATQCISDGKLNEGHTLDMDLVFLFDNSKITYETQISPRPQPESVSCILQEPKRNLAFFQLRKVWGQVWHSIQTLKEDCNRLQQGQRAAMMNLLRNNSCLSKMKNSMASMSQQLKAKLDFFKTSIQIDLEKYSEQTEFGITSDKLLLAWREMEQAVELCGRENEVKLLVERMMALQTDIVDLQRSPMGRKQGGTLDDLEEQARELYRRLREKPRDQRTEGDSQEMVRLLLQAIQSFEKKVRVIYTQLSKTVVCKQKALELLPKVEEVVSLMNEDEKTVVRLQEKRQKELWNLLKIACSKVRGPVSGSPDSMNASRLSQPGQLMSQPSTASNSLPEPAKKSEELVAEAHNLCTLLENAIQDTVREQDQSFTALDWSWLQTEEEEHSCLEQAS
As to the kind of experiment: IKK-β kinase inhibitory assay. The format is biochemical. As to conditions: compounds as yielded by solid phase synthesis, purity about 40 to 90%, read-out: In vitro activity grade (In vitro IC50). The method, boiled down:
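His-tagged human IKK-β from baculovirus-infected Sf21 cells (0.6 μg/ml final) phosphorylates biotinylated GST-IκBα(1-54) (0.2 μM) in Tris-HCl pH 7.6 buffer with MgCl2. ATP with [γ-33P]ATP added, then 2 h at room temperature. Biotinylated substrate captured on streptavidin plates; bound radioactivity counted by scintillation.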
As for `N#Cc1c(C2CCCNC2)cc(-c2c(O)cccc2OCCN2CCCCCC2)nc1N` (stereo not drawn) [Example 2-86], the 50% inhibitory concentration (IC50) fell in the range of 2000 to 10000 nM.

Consider `N#Cc1c(C2CCCNC2)cc(-c2c(O)cccc2OCCN2CCCC2)nc1N` (stereo not drawn) [Example 2-87], for which the 50% inhibitory concentration (IC50) fell in the range of 2000 to 10000 nM.

In the case of `CCOC(=O)N1Cc2c(C3CCCNC3)cc(-c3c(O)cccc3OCC3CC3)nc2NC1=O` (stereo not drawn) [Example 24-2, ethyl 7-[2-(cyclopropylmethoxy)-6-hydroxyphenyl]-2-oxo-5-(3-piperidinyl)-1,4-dihydropyrido[2,3-d]pyrimidine-3(2H)-carboxylate hydrochloride], the IC50 was under 500 nM.

Consider `O=C1Nc2nc(-c3c(O)cccc3OCC3CC3)cc(C3CCCNC3)c2CN1C(=O)NC1CCCCC1` (stereo not drawn) [Example 24-3, N-cyclohexyl-7-[2-(cyclopropylmethoxy)-6-hydroxyphenyl]-2-oxo-5-(3-piperidinyl)-1,4-dihydropyrido[2,3-d]pyrimidine-3(2H)-carboxamide hydrochloride], for which the concentration for half-maximal inhibition (IC50) is under 500 nM.

With `CS(=O)(=O)N1Cc2c(C3CCCNC3)cc(-c3c(O)cccc3OCC3CC3)nc2NC1=O` (stereo not drawn) [Example 24-4, 7-[2-(cyclopropylmethoxy)-6-hydroxyphenyl]-3-(methylsulfonyl)-5-(3-piperidinyl)-3,4-dihydropyrido[2,3-d]pyrimidin-2(1H)-one hydrochloride], the IC50 is under 500 nM.

On to `CCOC(=O)c1cc2c(C3CCCNC3)cc(-c3ccccc3O)nc2[nH]c1=O` (stereo not drawn) [Example 25-1, ethyl 7-(2-hydroxyphenyl)-2-oxo-5-(3-piperidinyl)-1,2-dihydro-1,8-naphthyridine-3-carboxylate hydrochloride], for which the IC50 is under 500 nM.

`O=c1[nH]c2nc(-c3c(O)cccc3OCC3CC3)cc(C3CCCNC3)c2cc1F` (stereo not drawn) [Example 25-2, 7-[2-(cyclopropylmethoxy)-6-hydroxyphenyl]-3-fluoro-5-(3-piperidinyl)-1,8-naphthyridin-2(1H)-one hydrochloride]: the half-inhibitory concentration (IC50) is under 500 nM.

On to `NC(=O)c1cc2c(C3CCNCC3)cc(-c3c(O)cccc3OCC3CC3)nc2[nH]c1=O` [Example 25-3, 7-[2-(cyclopropylmethoxy)-6-hydroxyphenyl]-2-oxo-5-(4-piperidinyl)-1,2-dihydro-1,8-naphthyridine-3-carboxamide hydrochloride], for which the half-maximal inhibitory concentration (IC50) was under 500 nM.

`O=c1ccc2c(C3CCCNC3)cc(-c3c(O)cccc3OCC3CC3)nc2[nH]1` (stereo not drawn) [Example 25-4, 7-[2-(cyclopropylmethoxy)-6-hydroxyphenyl]-5-(3-piperidinyl)-1,8-naphthyridin-2(1H)-one hydrochloride]: the IC50 was under 500 nM.

As to `CCOC(=O)C1Cc2c(C3CCCNC3)cc(-c3ccccc3O)nc2NC1=O` (stereo not drawn) [Example 26-1, ethyl 7-(2-hydroxyphenyl)-2-oxo-5-(3-piperidinyl)-1,2,3,4-tetrahydro-1,8-naphthyridine-3-carboxylate], the 50% inhibitory concentration (IC50) was under 500 nM.

In the case of `NC(=O)C1Cc2c(C3CCNCC3)cc(-c3c(O)cccc3OCC3CC3)nc2NC1=O` (stereo not drawn) [Example 26-2, 7-[2-(cyclopropylmethoxy)-6-hydroxyphenyl]-2-oxo-5-(4-piperidinyl)-1,2,3,4-tetrahydro-1,8-naphthyridine-3-carboxamide hydrochloride], the IC50 is under 500 nM.

Turning to `O=C1CCc2c(C3CCCNC3)cc(-c3ccccc3O)nc2N1` (stereo not drawn) [Example 27-1, 7-(2-hydroxyphenyl)-5-(3-piperidinyl)-3,4-dihydro-1,8-naphthyridin-2(1H)-one hydrochloride], the IC50 was under 500 nM.
